This is an account of results in ChEMBL document CHEMBL3272353, “4-Substituted semicarbazones of mono- and dichlorobenzaldehydes as antihypertensive agents” (J Med Chem, 1977).

The source made the active and inactive calls. The rule behind the calls is not given here.

In data set [1] the test system is Rattus norvegicus. The experiment in a line: Antihypertensive activity in spontaneously hypertensive rat assessed as reduction in mean arterial blood pressure at 100 mg/kg, po administered as two dose at 24 hrs interval measured 4 hrs post second dose relative to control. The class given is functional, Artery. Also noted: scale not given: the % may be the effect or the level left.

The test system of data set [2] is Canis familiaris. The experiment in a line: Antihypertensive activity in normotensive dog assessed as reduction in mean arterial blood pressure at 5 to 10 mg/kg, po administered in gelatin capsules. The class given is functional, organism-based. The conditions noted are these: Canis lupus familiaris, Artery.
In data set [3] the test system is Rattus norvegicus. The experiment in a line: Toxicity in spontaneously hypertensive rat assessed as adverse effect at 5 to 10 mg/kg, po administered as two dose at 24 hrs interval. The class given is organism-based. Also noted: dose 5-10 mg/kg, route oral. The conditions noted are these: in vivo.
The test system of data set [4] is Rattus norvegicus. The experiment in a line: Antihypertensive activity in spontaneously hypertensive rat assessed as reduction in mean arterial blood pressure at 10 mg/kg, po administered as two dose at 24 hrs interval measured 4 hrs post second dose relative to control. The class given is functional, Artery. Also noted: scale not given: the % may be the effect or the level left.

In data set [5] the test system is Rattus norvegicus. The experiment in a line: Antihypertensive activity in spontaneously hypertensive rat assessed as reduction in mean arterial blood pressure at 5 mg/kg, po administered as two dose at 24 hrs interval measured 4 hrs post second dose relative to control. The class given is functional, Artery. More on the design: scale not given: the % may be the effect or the level left.

The subject of data set [6] is Rattus norvegicus. The experiment in a line: Toxicity in spontaneously hypertensive rat assessed as general depression of cardiovascular function at 100 mg/kg, po administered as two dose at 24 hrs interval. The format is organism-based, Heart. More on the design: dose 100 mg/kg, route oral. Particulars: in vivo.
Data set [7] concerns Canis familiaris. The experiment in a line: Toxicity in dog assessed ataxia at 10 mg/kg, po administered in gelatin capsules. The format is organism-based, Canis lupus familiaris. Particulars: in vivo. Also noted: dose 10 mg/kg, route oral.
The test system of data set [8] is Rattus norvegicus. The experiment in a line: Antihypertensive activity in spontaneously hypertensive rat assessed as reduction in mean arterial blood pressure at 25 mg/kg, po administered as two dose at 24 hrs interval measured 4 hrs post second dose relative to control. The format is functional, Artery. Also noted: scale not given: the % may be the effect or the level left.

`CN(C)C(=O)N/N=C/c1ccc(Cl)cc1`: the Activity in the data set on Rattus norvegicus [1] stood at 16%.
In the case of `CN(C)C(=O)N/N=C/c1c(Cl)cccc1Cl`, the outcome in the data set on Canis familiaris [2] was inactive. In addition, the Activity result with Rattus norvegicus [3] was “Non-toxic”; in the data set on Rattus norvegicus [4], 46%; in the data set with Rattus norvegicus [5], 31%; with Rattus norvegicus [6], “Toxic”; with Canis familiaris [7] it was “Toxic”.
For `N=C(N)N/N=C/c1c(Cl)cccc1Cl` [GUANABENZ], the Activity in the data set with Rattus norvegicus [8] is on record as 26%.
For the compound `O=C(N/N=C/c1c(Cl)cccc1Cl)N1CCOCC1`, the Activity in the data set with Rattus norvegicus [1] came to 13%.
As to `CNC(=O)N/N=C/c1c(Cl)cccc1Cl`, the Activity in the data set with Rattus norvegicus [1] is recorded as 32%.
